# Values quoted from earlier work, collected in patent US11833157B2, “Precipitation resistant small molecule drug formulations” (Xeris Pharmaceuticals, Inc., priority 2017, dated 2023).
# System: febrile seizures
# Settings: short term diazepam prophylaxis at times of fever; 39% without
compound,measurement,value
CN1C(=O)CN=C(c2ccccc2)c2cc(Cl)ccc21 [diazepam],18 month recurrence rate,12%
